The values below come from patent US8729023B2 (priority 2002, dated 2014).

Several values for one entry are separate records, joined by “and”; a condition that tells them apart may be missing. Equal entries are not always repeated.

Series [1] concerns breast tissue of cancer-free and breast tumor-bearing rats. The series is described as follows: Effect of BQ788 on ET-1-induced changes in perfusion, CMBC and velocity of blood cells in breast tissue. The series is classed as in vivo, rat.
In series [2] the test system is human melanoma cells (UISO-MEL-2) tumor. Conditions: nude, mouse, in vivo.
For series [3] the following is noted: rat, in vivo.
A further series can be described thus: in vivo. Particulars: female, Sprague Dawley, rat.
In series [4] the test system is MNU-induced breast tumors. Particulars: rat, in vivo.
Setting [5] is: female, Sprague Dawley, iv, 3 nmol/kg.

Regarding `CCCC[C@@H](NC(=O)[C@@H](Cc1cn(C(=O)OC)c2ccccc12)NC(=O)[C@H](CC(C)(C)C)NC(=O)N1[C@H](C)CCC[C@@H]1C)C(=O)O` [BQ788, N-cis-2,6-dimethylpiperidinocarbonyl-L-gamma-methyll-eucyl-D-1-methoxycarbonyltrptophanyl-D-Nle], in series [1] (after BQ788 infusion), the “CMBC of tumor-bearing versus normal rats” value is “no difference” and the “velocity of RBC, tumor-bearing versus normal rats” value is given as “no difference”. Further, in series [1] (following ET-1 administration in BQ788 pretreated rats), the “perfusion in breast tissue of tumor-bearing rats versus normal rats” value is given as “No difference”. For the same molecule, the “blood perfusion in the breast tissue” value in series [1] (normal rats, BQ788 0.5 μmol/kg infusion for 20 minutes followed by ET-1 50 ng/kg/min for 30 minutes) is given as “did not change significantly”. In addition, in series [1] (tumor-bearing rats), the “effect of pretreatment on the increase in perfusion induced by ET-1” value was “attenuated”.
Turning to `CC(=O)O[C@H]1C(=O)[C@@]2(C)[C@H]([C@H](OC(=O)c3ccccc3)[C@]3(O)C[C@H](OC(=O)[C@H](O)[C@@H](NC(=O)c4ccccc4)c4ccccc4)C(C)=C1C3(C)C)[C@]1(OC(C)=O)CO[C@@H]1C[C@@H]2O` [paclitaxel], the “tumor [^3H]paclitaxel concentration” value in series [2] turned out to be 40.77 nmol/g tissue. In series [3] (female, Sprague Dawley), this molecule showed a K10 of 3.14 ± 1.34, a K12 of 56.47 ± 27.69, a K13 of 5.71 ± 3.37 and a βt½ of 1.0 ± 0.32 h. The molecule further gave a γt½ in series [3] (female, Sprague Dawley) of 25.87 ± 17.81 h. In series [3] (female, Sprague Dawley, iv), the AUC of paclitaxel turned out to be 9433.53 ± 1465.00 ng·h/mL and the “elimination half-life of paclitaxel” value came out at 8.4 ± 4.8 min. For the same molecule, in series [3] (setting [5]), the “AUC0-∞” value amounted to 9430 ± 1470 ng·h/mL; the Cl was 9.33 ± 1.2 mL/min/kg; the Vss (as a rule, a proportionality between amount in the body and measured concentration, not a real space) was 8.14 ± 2.95 L/kg; the “α t1/2” value came to 0.03 ± 0.01. In series [3] (setting [5]), the “β t1/2” value amounted to 1.0 ± 0.32 and the “γ t1/2” value is given as 25.87 ± 17.81. For the same molecule, the “clearance calculated as Dose/AUC” value in series [3] was 9.33 ± 1.2 mL/min/kg. Further, in the series “in vivo”, the MRT (commonly the average time that molecules of a dose stay in the body) was found to be 27.9 ± 19.8 h and the half-life (commonly the time in which the quantity being followed falls by half) is 1.8 ± 0.6 min. In the series “in vivo” (iv, 3 nmol/kg), the Cmax (usually the highest concentration seen after dosing) was 6730 ± 540 ng/mL; the MRT was determined as 27.9 ± 19.8 h; the MRT inf (as a rule, the average time that molecules of a dose stay in the body) worked out at 17.4 ± 8.13 h. Further, the total exposure AUC(0-inf) (commonly total exposure, with the tail of the curve extrapolated) in the series “in vivo” (iv, 3 nmol/kg, AUC0-∞) is 9420 ± 3180 ng·h/mL. In addition, in the series “in vivo” (iv, 3 nmol/kg, Cl), the clearance (as a rule, a measure of how efficiently the substance is removed, as volume per time) is 11.5 mL/min/kg. The Vd (usually a proportionality between amount in the body and measured concentration, not a real space) in “in vivo” (iv, 3 nmol/kg, Vd) amounted to 10.1 ± 4.18 L/kg. The same molecule showed a Vd in the series “in vivo” (iv, 3 nmol/kg, Vss) of 10.3 ± 4.54 L/kg. For the same molecule, in series [4], the “percent of tumors progressed” value was 71.4% and 61.1%; the “percent of tumors regressing in size” value is 9.5%; the “percent of tumors remaining in stasis” value was 22.2% and 19.5%; the “reduction in tumor volume as compared to control rats” value is given as 60.0%. Besides, in series [4], the “regression (FIG. 13)” value was determined as 33.8±19.4%; the “tumor multiplicity, new tumor occurrence” value was 78.3% and 41%; the tumor regression rate stood at 37.7±16.2%; the tumor volume is 1960.8±611.9 mm^3 and 1682.7±497.3 mm^3. The “tumors regressed compared to control rats” value in series [4] is 45.9±11.5%.
